Patent publication US20250073241A1, “Combination Therapies Using PRMT5 Inhibitors for the Treatment of Cancer” (MIRATI THERAPEUTICS, INC., priority 2021, published 2025)

Legend:
Assay type in all cases: in vivo, mice
Settings in all cases: Palbociclib 130 mg/kg PO QD
HCC4006 xenograft tumors = experiment: HCC4006 lung tumor xenograft, Example 3
Experimental: (§1) The compound of the disclosure was evaluated in several different lung tumor xenograft models: HCC4006, SW1573 PRMT5-044, H1650, and A549 PRMT-034. […] 2021, incorporated by reference in its entirety.

H1650 xenograft tumors = experiment: H1650 lung tumor xenograft, Example 5
Experimental: as §1

[1] = test system: A549 PRMT-034 xenograft tumors; experiment: A549 PRMT-034 lung tumor xenograft, Example 6
Experimental: as §1

[2] = test system: PANC-05-04 xenograft tumors; experiment: PANC-05-04 pancreatic tumor xenograft, Example 7
Experimental: (§2) The compound of the disclosure was evaluated in a couple of different pancreatic tumor xenograft models: PANC-05-04 and BXPC-3.

BXPC-3 xenograft tumors = experiment: BXPC-3 pancreatic tumor xenograft, Example 8
Experimental: as §2

MKN45 xenograft tumors = experiment: MKN45 gastric tumor xenograft, Example 9
Experimental: Immunodeficient female nu/nu mice were implanted with 5×10^6 LU99 lung cancer cells in 50% Matrigel. Tumors were measured using calipers until they reached approximately 150-200 mm^3. Animals were randomized to receive A) vehicle (0.5% methylcellulose (4000 cps)/0.2% Tween80 in water), B) a PRMT5 inhibitor, C) CDK4/6 inhibitor, or D) the PRMT5 inhibitor and CDK4/6 inhibitor, all administered orally (PO) for 21 days. Tumor volume was measured twice a week (n=5/treatment group). Average tumor volume and standard error of the mean was calculated and plotted at each study day in GraphPad.

[3] = Day 0, MRTX1719 100 mg/kg PO QD
[4] = Day 12, MRTX1719 100 mg/kg PO QD
[5] = Day 20, MRTX1719 100 mg/kg PO QD
[6] = Day 3, MRTX1719 100 mg/kg PO QD
[7] = Day 7, MRTX1719 100 mg/kg PO QD
[8] = Day 10, MRTX1719 100 mg/kg PO QD
[9] = Day 14, MRTX1719 100 mg/kg PO QD
[10] = Day 17, MRTX1719 100 mg/kg PO QD

Compound: Cn1ncc(-c2ccc3c(=O)[nH]nc(CN)c3c2)c1-c1c(F)c(Cl)cc(OC2CC2)c1C#N [MRTX1719, (2M)-2-(4-(4-(aminomethyl)-1-oxo-1,2-dihydrophthalazin-6-yl)-1-methyl-1H-pyrazol-5-y1)-4-chloro-6-cyclopropoxy-3-fluorobenzonitrile]
- Tumor Volume, Mean (HCC4006 xenograft tumors; [3]): 126 mm^3
- Tumor Volume, Mean (HCC4006 xenograft tumors; Day 2, MRTX1719 100 mg/kg PO QD): 150 mm^3
- Tumor Volume, Mean (HCC4006 xenograft tumors; Day 5, MRTX1719 100 mg/kg PO QD): 159 mm^3
- Tumor Volume, Mean (HCC4006 xenograft tumors; Day 9, MRTX1719 100 mg/kg PO QD): 154 mm^3
- Tumor Volume, Mean (HCC4006 xenograft tumors; [4]): 156 mm^3
- Tumor Volume, Mean (HCC4006 xenograft tumors; Day 16, MRTX1719 100 mg/kg PO QD): 159 mm^3
- Tumor Volume, Mean (HCC4006 xenograft tumors; [5]): 78 mm^3
- Tumor Volume, Mean (H1650 xenograft tumors; [3]): 146 mm^3
- Tumor Volume, Mean (H1650 xenograft tumors; [6]): 231 mm^3
- Tumor Volume, Mean (H1650 xenograft tumors; [7]): 471 mm^3
- Tumor Volume, Mean (H1650 xenograft tumors; [8]): 599 mm^3
- Tumor Volume, Mean (H1650 xenograft tumors; [9]): 625 mm^3
- Tumor Volume, Mean (H1650 xenograft tumors; [10]): 711 mm^3
- Tumor Volume, Mean (H1650 xenograft tumors; [5]): 635 mm^3
- Tumor Volume, Mean ([1]; Day 1, MRTX1719 100 mg/kg PO QD): 118 mm^3
- Tumor Volume, Mean ([1]; Day 8, MRTX1719 100 mg/kg PO QD): 169 mm^3
- Tumor Volume, Mean [1, 4]: 200 mm^3
- Tumor Volume, Mean ([1]; Day 15, MRTX1719 100 mg/kg PO QD): 210 mm^3
- Tumor Volume, Mean ([1]; Day 19, MRTX1719 100 mg/kg PO QD): 214 mm^3
- Tumor Volume, Mean ([1]; Day 22, MRTX1719 100 mg/kg PO QD): 221 mm^3
- Tumor Volume, Mean ([1]; Day 26, MRTX1719 100 mg/kg PO QD): 263 mm^3
- Tumor Volume, Mean ([1]; Day 29, MRTX1719 100 mg/kg PO QD): 288 mm^3
- Tumor Volume, Mean ([1]; Day 34, MRTX1719 100 mg/kg PO QD): 325 mm^3
- Tumor Volume, Mean [2, 3]: 149 mm^3
- Tumor Volume, Mean [2, 6]: 382 mm^3
- Tumor Volume, Mean [2, 7]: 519 mm^3
- Tumor Volume, Mean [2, 8]: 559 mm^3
- Tumor Volume, Mean [2, 9]: 563 mm^3
- Tumor Volume, Mean [2, 10]: 624 mm^3
- Tumor Volume, Mean [2, 5]: 603 mm^3
- Tumor Volume, Mean (BXPC-3 xenograft tumors; Day 0, MRTX1719 50 mg/kg PO QD): 122 mm^3
- Tumor Volume, Mean (BXPC-3 xenograft tumors; Day 3, MRTX1719 50 mg/kg PO QD): 174 mm^3
- Tumor Volume, Mean (BXPC-3 xenograft tumors; Day 6, MRTX1719 50 mg/kg PO QD): 206 mm^3
- Tumor Volume, Mean (BXPC-3 xenograft tumors; Day 9, MRTX1719 50 mg/kg PO QD): 310 mm^3
- Tumor Volume, Mean (BXPC-3 xenograft tumors; Day 13, MRTX1719 50 mg/kg PO QD): 359 mm^3
- Tumor Volume, Mean (BXPC-3 xenograft tumors; Day 16, MRTX1719 50 mg/kg PO QD): 372 mm^3
- Tumor Volume, Mean (BXPC-3 xenograft tumors; Day 20, MRTX1719 50 mg/kg PO QD): 368 mm^3
- Tumor Volume, Mean (MKN45 xenograft tumors; [3]): 105 mm^3
- Tumor Volume, Mean (MKN45 xenograft tumors; [6]): 165 mm^3
- Tumor Volume, Mean (MKN45 xenograft tumors; [7]): 207 mm^3
- Tumor Volume, Mean (MKN45 xenograft tumors; [8]): 221 mm^3
- Tumor Volume, Mean (MKN45 xenograft tumors; [9]): 214 mm^3
- Tumor Volume, Mean (MKN45 xenograft tumors; [10]): 230 mm^3
- Tumor Volume, Mean (MKN45 xenograft tumors; [5]): 221 mm^3
